Here are results for 16 compounds from PubChem BioAssay (NCI).

The structures appear in SMILES notation.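 Interpolation was linear, between the two tested concentrations surrounding the appropriate level; five concentrations were tested over 48 hours in 96-well plates. The concentration for 50% growth inhibition is given as GI50. TGI is the concentration that stops growth completely.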 Where only a bound is given, the exact number is not on record here.

Holding throughout (assay): NCI tumour cell line growth inhibition, 48 h
The subject of assay [1] is A498 renal.
In assay [2] the test system is A549 NSCLC.
In assay [3] the test system is CAKI-1 renal.
The subject of assay [4] is CCRF-CEM leukemia.
For assay [5], the system named is COLO 205 colon.
The subject of assay [6] is NCI/ADR-RES ovarian.
Assay [7] concerns OVCAR-5 ovarian.
Assay [8] deals with SK-MEL-2 melanoma.
The test system of assay [9] is SNB-75 CNS.
The test system of assay [10] is SW-620 colon.

For `O=c1cc(N2CCN(CCCCCOc3cc(O)c4c(=O)cc(-c5ccccc5)oc4c3)CC2)c2ccccc2o1`, the GI50 in [1] is greater than 100 µM; in assay [2] it was greater than 100 µM; in assay [3], greater than 100 µM; in assay [4] it was 19.3 µM; in assay [5], 70.5 µM; in assay [6] it was 74.2 µM. Also, the GI50 in assay [7], in [8], in assay [9] and in assay [10] was greater than 100 µM each time. Further, the TGI in assay [1], in [2], in assay [3], in [4], in assay [5] and in [6] was greater than 100 µM throughout. Besides, the TGI in assay [7], in [8], in assay [9] and in assay [10] was greater than 100 µM each time.

On to `CC(=C/C=C/C=C(C)\C=C\C=C(\C)C(=O)O)/C=C/C=C(/C)C(=O)O`, for which the TGI in assay [1], in assay [2], in assay [3], in [4], in assay [5] and in assay [6] was greater than 100 µM throughout. For the same compound, the TGI in assay [7], in assay [8], in [9] and in assay [10] was greater than 100 µM in each case.

As to `Cc1nc2sc(C(=O)Nc3cccc4ccccc34)c(N)c2cc1C(O)c1ccccc1` (stereo not drawn), the GI50 was 0.0202 µM in [1]; 0.0916 µM in [2]; 0.0583 µM in assay [3]; 0.0409 µM in [4]; 0.349 µM in assay [5]; 0.0373 µM in assay [6]. The GI50 in assay [7] was 0.28 µM; in assay [8], 0.29 µM; in assay [9] it was 0.0241 µM; in assay [10], 0.0377 µM. Further, the TGI in assay [1] is 0.0636 µM; in assay [2] it was greater than 100 µM; in assay [3], 12 µM; in [4] it was greater than 100 µM; in assay [5], 2.28 µM; in assay [6], 0.968 µM. For the same compound, the TGI in assay [7] is greater than 100 µM; in assay [8], 16.9 µM; in [9], 11.7 µM; in assay [10], 23.4 µM.

For the compound `COc1ccc(-c2cc(-c3cccn3C)c(C#N)c(=O)[nH]2)cc1OC`, the GI50 in assay [1] was 56.6 µM; in [2], greater than 100 µM; in assay [3], greater than 100 µM; in assay [4], 5.02 µM; in [5], greater than 100 µM; in assay [6] it was greater than 100 µM. In addition, the GI50 was greater than 100 µM in [7], greater than 100 µM in [8], 24.2 µM in assay [9] and greater than 100 µM in [10]. The TGI in assay [1], in [2], in assay [3], in assay [4], in assay [5] and in [6] was greater than 100 µM throughout. Moreover, the TGI in assay [7], in [8], in [9] and in [10] was greater than 100 µM throughout.

As for `C/C(=N\Nc1cc(C)c2ccccc2n1)c1ccccn1`, the GI50 in assay [1] was 0.284 µM; in assay [2], 0.0714 µM; in assay [4], less than 0.0269 µM; in [5], less than 0.0188 µM; in [6], 0.0717 µM; in [7], 0.0706 µM. In addition, the GI50 in assay [8] was 0.357 µM; in [9] it was 0.212 µM. Moreover, the TGI in assay [1] turned out to be 3.04 µM; in assay [2], 1.17 µM; in assay [3], 0.544 µM; in assay [4], 0.571 µM; in assay [5] it was 1.98 µM; in assay [6], 1.42 µM. Besides, the TGI in assay [7] came to 5.26 µM; in assay [8], 11.1 µM; in [9], 5.4 µM; in assay [10], 1.98 µM.

Take `CC(C)C[C@H](NC(=O)Cn1ccc(NCc2ccccc2)cc1=O)B(O)O`: the GI50 was 0.234 µM in [1]; 5.15 µM in assay [2]; 0.499 µM in assay [3]; 0.511 µM in assay [4]; 2.48 µM in [5]; 17.8 µM in assay [6]. The GI50 was 5.29 µM in [7], 1.85 µM in assay [8], 2.33 µM in [9] and 0.557 µM in [10]. Besides, the TGI in assay [1] was 1.59 µM; in assay [2], greater than 100 µM; in assay [3] it was 12.8 µM; in [4] it was greater than 100 µM; in [5], greater than 100 µM; in assay [6], greater than 100 µM. Further, the TGI in [7] was greater than 100 µM; in [8], 14.8 µM; in [9] it was 9.72 µM; in assay [10], greater than 28.6 µM.

For `CCCN(CCC)c1ccc(/C=C/c2ccc3cc(OCC)ccc3n2)cc1`, the GI50 in assay [1] is greater than 100 µM; in [2], 75.4 µM; in assay [3], 73.3 µM; in assay [4] it was 54.3 µM; in assay [5], greater than 100 µM; in assay [6], greater than 100 µM. For the same compound, the GI50 was greater than 100 µM in [7], greater than 100 µM in [8], 54.7 µM in assay [9] and greater than 100 µM in assay [10]. For the same compound, the TGI in assay [1], in assay [2], in assay [3], in assay [4], in assay [5] and in assay [6] was greater than 100 µM each time. Besides, the TGI in assay [7], in assay [8], in assay [9] and in assay [10] was greater than 100 µM throughout.

Take `O=C(O)CCCSc1ccccc1`: the TGI in assay [1], in assay [2], in [3], in assay [4], in assay [5] and in assay [6] was greater than 100 µM in each case. The TGI in [7], in [8], in assay [9] and in assay [10] was greater than 100 µM in each case.

For `CC(=O)N1C/C(=C/c2ccc(Cl)cc2)C(=O)/C(=C/c2ccc(Cl)cc2)C1`, the GI50 in [1] was 1.41 µM; in assay [2] it was 0.633 µM; in [3], 2.53 µM; in [4], 0.319 µM; in [5], 0.756 µM; in [6] it was 2.56 µM. Also, the GI50 is 1.68 µM in assay [7], 2.19 µM in [8], 0.963 µM in assay [9] and 0.297 µM in assay [10]. Moreover, the TGI in assay [1] came to 2.89 µM; in [2], 4.5 µM; in assay [3], 8.5 µM; in assay [4], 3.03 µM; in assay [5] it was 2.01 µM; in [6], 12.6 µM. For the same compound, the TGI came out at 3.45 µM in assay [7], 4.56 µM in assay [8], 2.64 µM in assay [9] and 0.981 µM in assay [10].

Consider `COc1cc(-c2ccc(-c3ccc(C(=N)N)nc3)s2)cc(OC)c1OC`, for which the GI50 in [1] was 4.9 µM; in assay [2], 2.06 µM; in assay [3], 1.59 µM; in assay [4], 2.49 µM; in assay [5], 1.6 µM; in assay [6], 5.2 µM. For the same compound, the GI50 in assay [7] was 2.1 µM; in assay [8] it was 2.09 µM; in assay [9], 1.5 µM; in assay [10], 2.09 µM. In addition, the TGI worked out at 18.2 µM in assay [1]; 4.51 µM in [2]; 3.19 µM in assay [3]; 7.41 µM in assay [4]; 3.26 µM in assay [5]; 24.1 µM in assay [6]. Besides, the TGI worked out at 5.38 µM in assay [7], 4.35 µM in assay [8], 5.16 µM in [9] and 5.24 µM in assay [10].

For `C#CC1(OC(C)=O)CCC2C3CC=C4C=C(OC(C)=O)CCC4(C)C3CCC21C` (stereo not drawn), the TGI in [1] is greater than 100 µM; in assay [2] it was greater than 100 µM; in assay [3], 83.2 µM; in assay [4], 30.5 µM; in assay [5], 58.5 µM; in assay [6] it was 79.3 µM. For the same compound, the TGI in assay [7] is greater than 100 µM; in assay [8], 41.1 µM; in [9], greater than 100 µM; in assay [10], 49.3 µM.

As for `CNC(=O)c1ccc(N2C(=S)N(c3ccc(C#N)c(C(F)(F)F)c3)C(=O)C2(C)C)cc1F`, the GI50 in assay [1] was greater than 35.3 µM; in [2], 33.6 µM; in assay [3], 31 µM; in assay [4], 30 µM; in assay [5], 32 µM; in [6] it was 33.3 µM. The GI50 was greater than 47.5 µM in assay [7], 36.2 µM in [8], 42.2 µM in [9] and greater than 52.6 µM in assay [10]. Moreover, the TGI is greater than 71 µM in assay [1]; greater than 95.4 µM in assay [2]; greater than 52 µM in assay [3]; greater than 100 µM in assay [4]; greater than 57.7 µM in [5]; greater than 100 µM in [6]. The TGI is greater than 92.4 µM in assay [7], greater than 71.9 µM in [8], greater than 79.9 µM in assay [9] and greater than 100 µM in [10].

On to `c1ccc2c(NCCCCCCNc3c4ccccc4nc4ccccc34)c3ccccc3nc2c1`, for which the TGI was 2.83 µM in [1]; 2.89 µM in assay [2]; 7.87 µM in assay [3]; 1.58 µM in [4]; 1.58 µM in assay [5]; 64.2 µM in assay [6]. For the same compound, the TGI in assay [7] worked out at 2.71 µM; in assay [8], 2.75 µM; in assay [9] it was 2.29 µM; in [10], 2.18 µM.

Regarding `CNC(=S)NC(=O)c1c(Cl)n(C(=O)OC(C)(C)C)c2ccccc12`, the GI50 in assay [1] is 51.5 µM; in [2], 84.3 µM; in [3] it was 21.2 µM; in [4], 35.4 µM; in assay [5], 59.6 µM; in assay [6] it was 47.8 µM. Also, the GI50 in assay [7] was 73.8 µM; in [8], greater than 100 µM; in assay [9], 96 µM; in assay [10], 79.2 µM. Also, the TGI was greater than 100 µM in [1]; greater than 100 µM in assay [2]; 69.9 µM in [3]; greater than 100 µM in [4]; greater than 100 µM in assay [5]; greater than 100 µM in [6]. In addition, the TGI in [7], in [8], in [9] and in assay [10] was greater than 100 µM each time.

For `COc1cc(N2CCC(N3CCN(C)CC3)CC2)ccc1Nc1ncnc(Nc2ccccc2S(=O)(=O)C(C)C)n1`, the GI50 in assay [1] was 2.3 µM; in assay [2], 3.17 µM; in [3], 3.32 µM; in assay [4], 5.84 µM; in [5], 3.21 µM; in assay [6], 7.26 µM. In addition, the GI50 in assay [7] was 2.06 µM; in assay [8], 5.83 µM; in [9], 3.63 µM; in [10], 3.68 µM. Further, the TGI is 17.2 µM in assay [1]; 14.9 µM in assay [2]; 13 µM in assay [3]; greater than 42.7 µM in [4]; 11.1 µM in [5]; 42.6 µM in assay [6]. Besides, the TGI in assay [7] was determined as 12.8 µM; in [8] it was 16.3 µM; in [9], 15.9 µM; in assay [10], 39.5 µM.

Turning to `COc1ccc(NC([Se])=NC23CC4CC(CC(C4)C2)C3)cc1`, the GI50 was 1.32 µM in assay [1]; 2.38 µM in assay [2]; 2.57 µM in [3]; 0.705 µM in assay [4]; 1.66 µM in assay [5]; 0.711 µM in assay [6]. Also, the GI50 is 1.7 µM in [7], 2.27 µM in [8], 1.54 µM in assay [9] and 1.51 µM in assay [10]. Moreover, the TGI in [1] stood at 4.75 µM; in assay [2], 7.78 µM; in assay [3], 10.2 µM; in assay [4], 4.97 µM; in [5] it was 3.95 µM; in assay [6], 8.88 µM. Also, the TGI in [7] amounted to 4.68 µM; in assay [8], 7.33 µM; in assay [9] it was 4.5 µM; in assay [10] it was 6.45 µM.
